Laboratory results taken from patent US20250387417A1, “CANNABINOID DERIVATIVES AND COMPOSITIONS COMPRISING SAME” (CANNASOUL ANALYTICS LTD., priority 2022, published 2025).

Test system: MCP-1 secretion
Assay: Acute inflammation: LPS-induced MCP-1 secretion in human colon epithelial cells (ELISA)
Assay type: cell-based
Settings: 10 ng/ml LPS, 24 hours, ELISA of supernatants, FIG. 1
Experimental: The efficacy of the compounds according to certain embodiments of the present invention in the treatment of IBD was assessed. Human colon epithelial cells were thawed and cultured in suitable media at a final concentration of 4×10^5 cells per mL. The cells were then cultured and tested in triplicates for 48 hours. Following incubation, controls and test compounds were diluted in culture media to achieve the final assay concentration. Cells were treated with 10 ng/ml LPS with or without positive control/test compounds and incubated for 24 hours. Rosiglitazone at 7.2 μg/ml served as a positive control. Following incubation, the supernatants were collected, and the secretion levels of MCP-1 were measured by ELISA (R&D systems). Optical density was determined by ‘CLARIOStar-plus’® plate-reader. The chemokine concentration (pg/ml) was calculated using a standard curve.

Row | SMILES | inhibition of MCP-1 secretion | inhibitory effect on MCP-1 secretion compared among the test compounds
1 | CCCCCCc1cc(O)c(C/C=C(\C)CCC=C(C)C)c(O)c1OC(C)=O [(E)-3-(3,7-dimethylocta-2,6-dien-1-yl)-6-hexyl-2,4-dihydroxyphenyl acetate] | effectively inhibited MCP-1 secretion in a statistically significant manner | 
2 | CCCCCc1cc(O)c(CC=C(C)C)c(O)c1OC(C)=O [Compound 15] | effectively inhibited MCP-1 secretion in a statistically significant manner | most pronounced inhibitory effect on MCP-1 secretion
3 | CCCCCc1cc(O)c(C2C=C(C)CCC2C(C)(C)O)c(O)c1OC(C)=O (stereo not shown) [Compound 17] | effectively inhibited MCP-1 secretion in a statistically significant manner | 
